Test results reported in patent US9796741B2 (Achillion Pharmaceuticals, Inc., priority 2014, dated 2017).
pIC50: −log10 of the molar value. Read-outs that look alike come from different tables or passages of the source.

Target: Human factor D (Homo sapiens (Human), UniProt P00746)
Test: Human Factor D Assay
Format: biochemical
Summary of the method: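 Serum-purified factor D (80 nM final) preincubated 5 min at room temperature with compound in 50 mM Tris, 1M NaCl, pH 7.5. Z-L-Lys-SBzl and DTNB added at 100 μM each; OD405 followed kinetically over 30 min. IC50 by non-linear regression of % inhibition.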

[1] = human factor D 80 nM, substrate Z-L-Lys-SBzl, DTNB

Human factor D, sequence (P00746 26-253): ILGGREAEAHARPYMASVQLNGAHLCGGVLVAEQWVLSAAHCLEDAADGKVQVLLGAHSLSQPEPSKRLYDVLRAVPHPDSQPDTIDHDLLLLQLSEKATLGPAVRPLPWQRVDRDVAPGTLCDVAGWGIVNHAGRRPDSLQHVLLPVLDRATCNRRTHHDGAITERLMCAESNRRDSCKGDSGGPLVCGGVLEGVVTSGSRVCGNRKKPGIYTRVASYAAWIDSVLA

## CC(=O)c1cn(CC(=O)N2C[C@H](F)C[C@H]2C(=O)Nc2cccc(Br)n2)c2ccc(-c3cnc(C)nc3)cc12 [Compound 84, (2S,4R)-1-(2-(3-acetyl-5-(2-methylpyrimidin-5-yl)-1H-indol-1-yl)acetyl)-N-(6-bromopyridin-2-yl)-4-fluoropyrrolidine-2-carboxamide]
[1]
  pIC50: > 6.00

## CC(=O)c1cn(CC(=O)N2C[C@H](F)C[C@H]2C(=O)Nc2ccc(CN)cc2)c2ccc(-c3ccnnc3)cc12 [Compound 85, (2S,4R)-1-(2-(3-acetyl-5-(pyridazin-4-yl)-1H-indol-1-yl)acetyl)-N-(4-(aminomethyl)phenyl)-4-fluoropyrrolidine-2-carboxamide]
[1]
  pIC50: < 5.00

## NC(=O)c1nn(CC(=O)N2C[C@H](F)C[C@H]2C(=O)Nc2ccc3cn[nH]c3c2)c2ccc(-c3ccnnc3)cc12 [Compound 86, 1-(2-((2S,4R)-2-(1H-indazol-6-ylcarbamoyl)-4-fluoropyrrolidin-1-yl)-2-oxoethyl)-5-(pyridazin-4-yl)-1H-indazole-3-carboxamide]
[1]
  pIC50: < 5.00

## CC(=O)c1cn(CC(=O)N2C[C@H](F)C[C@H]2C(=O)Nc2cncc(Cl)n2)c2ccc(-c3ccnnc3)cc12 [Compound 88, (2S,4R)-1-(2-(3-acetyl-5-(pyridazin-4-yl)-1H-indol-1-yl)acetyl)-N-(6-chloropyrazin-2-yl)-4-fluoropyrrolidine-2-carboxamide]
[1]
  pIC50: > 6.00

## NC(=O)c1nn(CC(=O)N2C[C@H](F)C[C@H]2C(=O)Nc2cncc(Cl)n2)c2ccc(-c3ccnnc3)cc12 [Compound 89, 1-(2-((2S,4R)-2-(6-chloropyrazin-2-ylcarbamoyl)-4-fluoropyrrolidin-1-yl)-2-oxoethyl)-5-(pyridazin-4-yl)-1H-indazole-3-carboxamide]
[1]
  pIC50: > 6.00

## NC(=O)c1nn(CC(=O)N2C[C@H](F)C[C@H]2C(=O)Nc2ccc(F)c(-c3nnc4n3CCCCC4)c2)c2ccc(-c3ccnnc3)cc12 [Compound 91, 1-(2-((2S,4R)-4-fluoro-2-(4-fluoro-3-(6,7,8,9-tetrahydro-5H-[1,2,4]triazolo[4,3-a]azepin-3-yl)phenylcarbamoyl)pyrrolidin-1-yl)-2-oxoethyl)-5-(pyridazin-4-yl)-1H-indazole-3-carboxamide]
[1]
  pIC50: < 5.00

## NC(=O)c1nn(CC(=O)N2C[C@H](F)C[C@H]2C(=O)Nc2cccc(Cl)c2C(F)(F)F)c2ccc(-c3ccnnc3)cc12 [Compound 93, 1-(2-((2S,4R)-2-(3-chloro-2-(trifluoromethyl)phenylcarbamoyl)-4-fluoropyrrolidin-1-yl)-2-oxoethyl)-5-(pyridazin-4-yl)-1H-indazole-3-carboxamide]
[1]
  pIC50: < 5.00

## NC(=O)c1nn(CC(=O)N2C[C@H](F)C[C@H]2C(=O)Nc2c[nH]nc2-c2ccc(Cl)cc2Cl)c2ccc(-c3ccnnc3)cc12 [Compound 94, 1-(2-((2S,4R)-2-(3-(2,4-dichlorophenyl)-1H-pyrazol-4-ylcarbamoyl)-4-fluoropyrrolidin-1-yl)-2-oxoethyl)-5-(pyridazin-4-yl)-1H-indazole-3-carboxamide]
[1]
  pIC50: < 5.00

## CC(=O)c1cn(CC(=O)N2C[C@H](F)C[C@H]2C(=O)Nc2cccc(Cl)c2-n2cncn2)c2ccc(-c3ccnnc3)cc12 [Compound 95, (2S,4R)-1-(2-(3-acetyl-5-(pyridazin-4-yl)-1H-indol-1-yl)acetyl)-N-(3-chloro-2-(1H-1,2,4-triazol-1-yl)phenyl)-4-fluoropyrrolidine-2-carboxamide]
[1]
  pIC50: < 5.00

## NC(=O)c1nn(CC(=O)N2C[C@H](F)C[C@H]2C(=O)Nc2cccc(Cl)c2-n2cncn2)c2ccc(-c3ccnnc3)cc12 [Compound 96, 1-(2-((2S,4R)-2-(3-chloro-2-(1H-1,2,4-triazol-1-yl)phenylcarbamoyl)-4-fluoropyrrolidin-1-yl)-2-oxoethyl)-5-(pyridazin-4-yl)-1H-indazole-3-carboxamide]
[1]
  pIC50: < 5.00

## CC(=O)c1cn(CC(=O)N2C[C@H](F)C[C@H]2C(=O)Nc2cc(C)nc3nc(C(F)(F)F)nn23)c2ccc(-c3ccnnc3)cc12 [Compound 97, (2S,4R)-1-(2-(3-acetyl-5-(pyridazin-4-yl)-1H-indol-1-yl)acetyl)-4-fluoro-N-(5-methyl-2-(trifluoromethyl)-[1,2,4]triazolo[1,5-a]pyrimidin-7-yl)pyrrolidine-2-carboxamide]
[1]
  pIC50: < 5.00

## Cn1cnnc1-c1ccccc1NC(=O)[C@@H]1C[C@@H](F)CN1C(=O)Cn1nc(C(N)=O)c2cc(-c3ccnnc3)ccc21 [Compound 98, 1-(2-((2S,4R)-4-fluoro-2-(2-(4-methyl-4H-1,2,4-triazol-3-yl)phenylcarbamoyl)pyrrolidin-1-yl)-2-oxoethyl)-5-(pyridazin-4-yl)-1H-indazole-3-carboxamide]
[1]
  pIC50: < 5.00

## CC(=O)c1cn(CC(=O)N2C[C@H](F)C[C@H]2C(=O)Nc2nc(-c3ccccc3Cl)ns2)c2ccc(-c3ccnnc3)cc12 [Compound 99, (2S,4R)-1-(2-(3-acetyl-5-(pyridazin-4-yl)-1H-indol-1-yl)acetyl)-N-(3-(2-chlorophenyl)-1,2,4-thiadiazol-5-yl)-4-fluoropyrrolidine-2-carboxamide]
[1]
  pIC50: > 6.00

## CC(=O)c1cn(CC(=O)N2C[C@H](F)C[C@H]2C(=O)Nc2cccc(Br)n2)c2ccc(-c3ccccc3Cl)cc12 [Compound 100, (2S,4R)-1-(2-(3-acetyl-5-(2-chlorophenyl)-1H-indol-1-yl)acetyl)-N-(6-bromopyridin-2-yl)-4-fluoropyrrolidine-2-carboxamide]
[1]
  pIC50: > 6.00

## Cc1ncc(-c2ccc3c(c2)c(C(N)=O)nn3CC(=O)N2C[C@H](F)C[C@H]2C(=O)Nc2cccc(Br)n2)cn1 [Compound 101, 1-(2-((2S,4R)-2-(6-bromopyridin-2-ylcarbamoyl)-4-fluoropyrrolidin-1-yl)-2-oxoethyl)-5-(2-methylpyrimidin-5-yl)-1H-indazole-3-carboxamide]
[1]
  pIC50: > 6.00

## CC(=O)c1cn(CC(=O)N2C[C@H](F)C[C@H]2C(=O)Nc2cccc(-c3ccccc3Cl)c2F)c2ccc(-c3cnc(C)nc3)cc12 [Compound 102, (2S,4R)-1-(2-(3-acetyl-5-(2-methylpyrimidin-5-yl)-1H-indol-1-yl)acetyl)-N-(2′-chloro-2-fluorobiphenyl-3-yl)-4-fluoropyrrolidine-2-carboxamide]
[1]
  pIC50: > 6.00

## Cc1ncc(-c2ccc3c(c2)c(C(N)=O)nn3CC(=O)N2C[C@H](F)C[C@H]2C(=O)Nc2cccc(-c3ccccc3Cl)c2F)cn1 [Compound 103, 1-(2-((2S,4R)-2-(2′-chloro-2-fluorobiphenyl-3-ylcarbamoyl)-4-fluoropyrrolidin-1-yl)-2-oxoethyl)-5-(2-methylpyrimidin-5-yl)-1H-indazole-3-carboxamide]
[1]
  pIC50: > 6.00

## NC(=O)c1nn(CC(=O)N2C[C@H](F)C[C@H]2C(=O)Nc2cccc3c2CN(c2ccccn2)C3)c2ccc(-c3ccnnc3)cc12 [Compound 104, 1-(2-((2S,4R)-4-fluoro-2-(2-(pyridin-2-yl)isoindolin-4-ylcarbamoyl)pyrrolidin-1-yl)-2-oxoethyl)-5-(pyridazin-4-yl)-1H-indazole-3-carboxamide]
[1]
  pIC50: < 5.00

## CC(=O)c1cn(CC(=O)N2C[C@H](F)C[C@H]2C(=O)Nc2cccc3c2CN(c2ccccn2)C3)c2ccc(-c3ccnnc3)cc12 [Compound 105, (2S,4R)-1-(2-(3-acetyl-5-(pyridazin-4-yl)-1H-indol-1-yl)acetyl)-4-fluoro-N-(2-(pyridin-2-yl)isoindolin-4-yl)pyrrolidine-2-carboxamide]
[1]
  pIC50: < 5.00

## CC(=O)c1cn(CC(=O)N2C[C@H](F)C[C@H]2C(=O)NC2CCCc3nc(-c4ccc(F)cc4)sc32)c2ccc(-c3ccnnc3)cc12 (stereo partly drawn) [Compound 106, (2S,4R)-1-(2-(3-acetyl-5-(pyridazin-4-yl)-1H-indol-1-yl)acetyl)-4-fluoro-N-(2-(4-fluorophenyl)-4,5,6,7-tetrahydrobenzo[d]thiazol-7-yl) pyrrolidine-2-carboxamide]
[1]
  pIC50: < 5.00

## NC(=O)c1nn(CC(=O)N2C[C@H](F)C[C@H]2C(=O)NC2CCCc3nc(-c4ccc(F)cc4)sc32)c2ccc(-c3ccnnc3)cc12 (stereo partly drawn) [Compound 107, 1-(2-((2S,4R)-4-fluoro-2-(2-(4-fluorophenyl)-4,5,6,7-tetrahydrobenzo[d]thiazol-7-ylcarbamoyl)pyrrolidin-1-yl)-2-oxoethyl)-5-(pyridazin-4-yl)-1H-indazole-3-carboxamide]
[1]
  pIC50: < 5.00

## NC(=O)c1nn(CC(=O)N2C[C@H](F)C[C@H]2C(=O)Nc2ncc(Br)cn2)c2ccc(-c3ccnnc3)cc12 [Compound 109, 1-(2-((2S,4R)-2-(5-bromopyrimidin-2-ylcarbamoyl)-4-fluoropyrrolidin-1-yl)-2-oxoethyl)-5-(pyridazin-4-yl)-1H-indazole-3-carboxamide]
  pIC50: 5.00 to 6.00

## CC(=O)c1cn(CC(=O)N2C[C@H](F)C[C@H]2C(=O)Nc2ccc3ccccc3c2)c2ccc(-c3ccnnc3)cc12 [Compound 110, (2S,4R)-1-(2-(3-acetyl-5-(pyridazin-4-yl)-1H-indol-1-yl)acetyl)-4-fluoro-N-(naphthalen-2-yl)pyrrolidine-2-carboxamide]
[1]
  pIC50: < 5.00

## NC(=O)c1nn(CC(=O)N2C[C@H](F)C[C@H]2C(=O)Nc2noc3cc(C(F)(F)F)ccc23)c2ccc(-c3ccnnc3)cc12 [Compound 112, 1-(2-((2S,4R)-4-fluoro-2-(6-(trifluoromethyl)benzo[d]isoxazol-3-ylcarbamoyl)pyrrolidin-1-yl)-2-oxoethyl)-5-(pyridazin-4-yl)-1H-indazole-3-carboxamide]
[1]
  pIC50: < 5.00

## Cc1cc(NC(=O)[C@@H]2C[C@@H](F)CN2C(=O)Cn2nc(C(N)=O)c3cc(-c4ccnnc4)ccc32)n2nc(C(F)(F)F)nc2n1 [Compound 113, 1-(2-((2S,4R)-4-fluoro-2-(5-methyl-2-(trifluoromethyl)-[1,2,4]triazolo[1,5-a]pyrimidin-7-ylcarbamoyl)pyrrolidin-1-yl)-2-oxoethyl)-5-(pyridazin-4-yl)-1H-indazole-3-carboxamide]
[1]
  pIC50: < 5.00
